In test [1] the target is T1, 5-HT1F receptor (Homo sapiens, UniProt P30939).
T1 sequence (P30939 1-366): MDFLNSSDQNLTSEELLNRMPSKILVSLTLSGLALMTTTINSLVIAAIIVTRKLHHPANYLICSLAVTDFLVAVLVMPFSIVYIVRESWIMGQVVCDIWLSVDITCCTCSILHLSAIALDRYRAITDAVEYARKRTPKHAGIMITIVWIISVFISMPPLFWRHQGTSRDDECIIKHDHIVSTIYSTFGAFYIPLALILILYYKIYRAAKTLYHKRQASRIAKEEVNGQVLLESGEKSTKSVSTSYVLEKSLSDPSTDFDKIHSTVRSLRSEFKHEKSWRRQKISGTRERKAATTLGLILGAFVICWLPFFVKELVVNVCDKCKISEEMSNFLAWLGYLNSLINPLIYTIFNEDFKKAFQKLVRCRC
Put plainly: [3H]5-HT displacement binding to clonal 5-HT1F cell membranes (transfected Ltk- cells). More on the design: The entire coding region of clone hl16a was cloned into the eukaryotic expression vector pcEXV-3; expressed in transfected cells. As to conditions: for affinity for 5-HT1F receptor in words: displacement of [3H]5-HT specific binding.
Procedure: Stable cell lines were obtained by cotransfection with the plasmid pcEXV-3 (containing the 5-HT1F receptor gene) and the plasmid pGCcos3neo (containing the aminoglycoside transferase gene) into Ltk^− cells or NIH3T3 cells using calcium phosphate (reagents obtained from Specialty Media, Lavellette, N.J.). The cells were grown in a controlled environment (37° C. 5% CO2) an monolayers in Dulbecco's modified Eagle medium (Gibco, Grand Island, N.Y.) containing 25 mM glucose and supplemented with 10% bovine calf serum, 100 U/ml penicillin G and 100 μg/ml streptomycin sulfate.
(§1) Membrane Preparation: Membranes were prepared from transfected Ltk^− cells which were grown to 100% confluency. The cells were washed twice with phosphate-buffered saline, scraped from the culture dishes into 5 ml of ice-cold phosphate-buffered saline, and centrifuged at 200×g for 5 min at 4°. The pellet was resuspended in 2.5 ml of ice-cold Tris buffer (20 mM Tris-HCl, pH 7.4 at 23°, 5 mM EDTA) and homogenized by a Wheaton tissue grinder. The lysate was subsequently centrifuged at 200×g for 5 min at 4° to pellet large fragments which were discarded. The supernatant was collected and centrifuged at 40,000×g for 20 min at 4°. The pellet resulting from this centrifugation was washed once in ice-cold Tris wash buffer and finally resuspended in a final buffer containing 50 mM Tris-HCl and 0.5 mM EDTA, pH 7.4 at 23°. Membrane preparations were kept on ice and utilized within two hours for the radioligand binding assays.
The binding profile of drugs in competition experiments was accomplished using 10-12 concentrations of compound. Incubation times were 30 min for both saturation and displacement studies based upon initial investigations which determined equilibrium binding conditions. […] Binding was initiated by the addition of 50 μl membrane homogenates (10-20 μg). […] All experiments were performed in triplicate.

Test [2] deals with T1, 5-HT1F receptor.
Procedure: (§2) The antagonist Kb was estimated by method of Furchgott (32): Kb=(Dose of antagonist)/((E50 in the presence of antagonist/control E50) −1).
(§3) Transfected NIH3T3 cells (estimated Bmax from one point competition studies=486 fmol/mg of protein) were incubated in DMEM, 5 mM theophylline, 10 mM Hepes (4-[2-Hydroxyethyl]-1-piperazineethanesulfonic acid), 10 μM pargyline, for 20 minutes at 37° C., CO2. Drug dose-effect curves were then conducted by adding 6 different final concentrations of drug, followed immediately by the addition of forskolin (10 μM). Subsequently, the cells were incubated for an additional 10 minutes at 37° C., 5% CO2. The media was aspirated and the reaction terminated by the addition of 100 mM HCl. The plates were stored at 4° C. for 15 minutes and centrifuged for 5 minutes (500×g at 4° C.) to pellet cellular debris. Aliquots of the supernatant fraction were then stored at −20° C. prior to assessment of cAMP formation by radioimmunoassay (cAMP Radioimmunoassay kit, Advanced Magnetics, Cambridge, Mass.).
A further test deals with dog saphenous vein. As to conditions: cited from earlier work.
Another test has as its target 5-HT1E receptor (Homo sapiens, UniProt P28566). As to conditions: U.S. Ser. No. 803,626; cited from earlier work.
Test [3] deals with T1, 5-HT1F receptor. Put plainly: Coupling to PI turnover. Type of test: cell-based. On the set-up: The entire coding region of clone hl16a was cloned into the eukaryotic expression vector pcEXV-3; expressed in transfected cells. As to conditions: dose of 10 μM.
Another test concerns human 5-HT1F receptor. Briefly: Inhibition of [3H]5-HT specific binding by Gpp(NH)p (G-protein coupling). As to conditions: mean ± S.E.M., n=3.
In test [4] the target is T1, 5-HT1F receptor. Put plainly: cell-based.
Procedure: as §2, §3
[5] abbreviates: read-out: Ki (nM) for the inhibition of [3H]5-HT specific binding.
[6] abbreviates: read-out: Ki (nM) for the inhibition of [3H]5-HT specific binding, 4.5-5.5 nM [3H]5-HT, 10-12 drug concentrations, Cheng-Prusoff from IC50, mean ± S.E.M. of 2-4 determinations.

Where two headings read alike, the source gives them in different places.

Sequence of 5-HT1E receptor (P28566 whole entry): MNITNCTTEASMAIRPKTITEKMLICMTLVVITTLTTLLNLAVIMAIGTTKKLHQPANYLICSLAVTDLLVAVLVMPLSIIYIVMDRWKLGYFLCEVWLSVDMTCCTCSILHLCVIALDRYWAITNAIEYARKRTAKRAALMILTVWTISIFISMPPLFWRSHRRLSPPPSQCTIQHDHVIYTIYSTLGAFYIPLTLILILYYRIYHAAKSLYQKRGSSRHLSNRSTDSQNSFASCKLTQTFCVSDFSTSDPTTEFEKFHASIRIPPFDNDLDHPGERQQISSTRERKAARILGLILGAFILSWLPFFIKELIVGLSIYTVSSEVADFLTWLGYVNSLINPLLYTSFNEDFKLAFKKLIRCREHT
Procedure for human 5-HT1F receptor: as §1
The binding profile of drugs in competition experiments was accomplished using 10-12 concentrations of compound. Incubation times were 30 min for both saturation and displacement studies based upon initial investigations which determined equilibrium binding conditions. […] Binding was initiated by the addition of 50 μl membrane homogenates (10-20 μg). […] IC50 values were converted to K1 values using the Cheng-Prusoff equation (1973). All experiments were performed in triplicate.

In the case of `NCCc1c[nH]c2ccccc12` [Tryptamine], the “affinity for 5-HT1F receptor in words” value at 5-HT1F receptor [1] is listed as “significantly decreases the affinity”. In addition, the Ki at 5-HT1F receptor [1] (setting [5]) amounted to 2410 nM.
Turning to `COc1cc(CC(C)N)c(OC)cc1I` (stereo not shown) [DOI], at 5-HT1F receptor [1], the “affinity for 5-HT1F receptor in words” value is “very poor affinity”. Also, the Ki at 5-HT1F receptor [1] (setting [5]) came out at 1740 nM.
For `FC(F)(F)c1cccc(N2CCNCC2)c1` [TFMPP], at 5-HT1F receptor [1] (setting [6]), the Ki was 1000 nM.
The molecule `CN1CCc2cc(Cl)c(O)cc2[C@@H](c2ccccc2)C1` [SCH 23390] showed a Ki at 5-HT1F receptor [1] of 1490 nM.
For the molecule `CC[C@@H](CO)NC(=O)[C@@H]1C=C2c3cccc4[nH]cc(c34)C[C@H]2N(C)C1` [Methylergonovine], the “affinity for 5-HT1F receptor in words” value at 5-HT1F receptor [1] was “high affinity”. At 5-HT1F receptor [1] (setting [6]), the Ki came out at 31 ± 11 nM.
In the case of `CCCN(CCC)CCc1c[nH]c2ccc(C(N)=O)cc12` [DP-5-CT], the Ki on 5-HT1F receptor [1] (setting [5]) was found to be 1610 nM.
On to `COc1cc(N)c(Cl)cc1C(=O)NC1CN2CCC1CC2` (stereo not shown) [Zacopride], for which, at 5-HT1F receptor [1], the Ki is above 10000 nM and the “affinity for 5-HT1F receptor in words” value was “very poor affinity”.
On to `c1ccc2nc(N3CCNCC3)ccc2c1` [Quipanzine], for which the Ki on 5-HT1F receptor [1] (setting [5]) turned out to be 4670 nM.
As for `O=C(c1ccc(F)cc1)C1CCN(CCn2c(=O)[nH]c3ccccc3c2=O)CC1` [Ketanserin], at 5-HT1F receptor [1], the Ki was above 10000 nM and the “affinity for 5-HT1F receptor in words” value is on record as “very poor affinity”.
For `COc1ccc2c3c([nH]c2c1)C(C)=NCC3` [Harmaline], the Ki at 5-HT1F receptor [1] is above 10000 nM.
What is called EC50 is the concentration that produces a half-maximal response. For the molecule `c1ccc2c(N3CCNCC3)cccc2c1` [1-Napthylpiperazine], the Ki on 5-HT1F receptor [1] (unit inferred, read-out: K1) was 54 nM. Besides, at 5-HT1F receptor [2] (read-out: EC50 for decrease in forskolin-stimulated cAMP production), the concentration giving a half-maximal response (EC50) is 4.5 ± 0.2 nM.
Take `O=C(CCCN1CCC2(CC1)C(=O)NCN2c1ccccc1)c1ccc(F)cc1` [Spiperone]: on 5-HT1F receptor [1], the Ki is above 10000 nM and the “affinity for 5-HT1F receptor in words” value is “very poor affinity”.
On 5-HT1F receptor [1], `Cc1nc2sccn2c(=O)c1CCN1CCC(=C(c2ccc(F)cc2)c2ccc(F)cc2)CC1` [Ritanserin] gave a Ki of 3520 nM.
As to `NCCc1c[nH]c2ccc(OCc3ccccc3)cc12` [5-Benzoxytryptamine], the Ki at 5-HT1F receptor [1] was found to be 1490 nM.
As for `CN1C[C@H](CNC(=O)OCc2ccccc2)C[C@@H]2c3cccc4c3c(cn4C)C[C@H]21` [Metergoline], the “block of the effects of sumatriptan” value in the test on dog saphenous vein was “does not block the effects of sumatriptan”. The Ki on 5-HT1F receptor [1] (setting [6]) turned out to be 341 ± 71 nM.
For the molecule `CSc1ccc2c(c1)C(N1CCN(C)CC1)Cc1ccccc1S2` (stereo not shown) [Methiothepin], the Ki on 5-HT1F receptor [1] (setting [6]) was 652 ± 41 nM. For the same molecule, the “blockade of functional 5-HT response” value at 5-HT1F receptor [2] (5-HT 1 μM, antagonist 10 μM) was “completely blocked”. Further, the nature of antagonism result on 5-HT1F receptor [2] (FIG. 3, 5-HT curves with and without antagonist) is recorded as “surmountable”. The “direct effect of compound on cAMP response” value on 5-HT1F receptor [2] (compound alone) is listed as “No direct effect”. Also, the Kd at 5-HT1F receptor [2] (read-out: apparent KD from dose shift of 5-HT concentration-effect curve, antagonist, method of Furchgott (FIG. 3)) amounted to 438 ± 14 nM.
`COc1ccc2[nH]cc(CCN)c2c1` [5-MT, 5-methoxytryptamine]: on 5-HT1F receptor [1], the Ki is 1120 nM and the “affinity for 5-HT1F receptor in words” value is “significantly decreases the affinity”.
Regarding `Cc1[nH]c2ccc(O)cc2c1CCN` [2-Methyl-5-HT], the Ki at 5-HT1F receptor [1] (setting [6]) was 413 ± 5.6 nM.
For the molecule `COC(=O)[C@H]1[C@H]2C[C@H]3c4[nH]c5ccccc5c4CCN3C[C@H]2CC[C@@H]1O` [rauwolscine], the “affinity for 5-HT1F receptor in words” value at 5-HT1F receptor [1] is given as “fair affinity”.
`CC[C@@H](CO)NC(=O)[C@@H]1C=C2c3cccc4c3c(cn4C)C[C@H]2N(C)C1` [Methysergide]: the “affinity for 5-HT1F receptor in words” value on 5-HT1F receptor [1] is reported as “high affinity”. The Ki on 5-HT1F receptor [1] (setting [5]) was 34 ± 4.9 nM.
With `NCCc1c[nH]c2ccc(F)cc12` [5-Fluorotryptamine], the Ki at 5-HT1F receptor [1] came to 1810 nM.
The molecule `C[C@@H](CO)NC(=O)[C@@H]1C=C2c3cccc4[nH]cc(c34)C[C@H]2N(C)C1` [Ergonovine] gave a Ki on 5-HT1F receptor [1] of 31 ± 1.5 nM.
Turning to `CC(C)NCC(O)COc1cccc2ccccc12` (stereo not shown) [Propanolol], at 5-HT1F receptor [1], the Ki is 8710 nM.
In the case of `CN1C[C@H](C(=O)N[C@]2(C)O[C@@]3(O)[C@@H]4CCCN4C(=O)[C@H](Cc4ccccc4)N3C2=O)C=C2c3cccc4[nH]cc(c34)C[C@H]21` [Ergotamine], the Ki on 5-HT1F receptor [1] (setting [6]) came out at 171 ± 28 nM.
Turning to `COC(=O)[C@@H]1[C@H]2C[C@H]3c4[nH]c5ccccc5c4CCN3C[C@@H]2CC[C@@H]1O` [Yohimbine], the “affinity for 5-HT1F receptor in words” value at 5-HT1F receptor [1] is reported as “fair affinity”. Besides, the Ki at 5-HT1F receptor [1] (setting [5]) came to 92 ± 11 nM.
As to `NCCc1c[nH]c2ccc(C(N)=O)cc12` [5-CT, 5-carboxyamidotryptamine], the results for the “affinity for 5-HT1F receptor in words” value at 5-HT1F receptor [1] and on 5-HT1F receptor [1] (listed as 5-carboxyamidotryptamine) were “low affinity” and “significantly decreases the affinity”, respectively. Besides, the Ki at 5-HT1F receptor [1] (setting [5]) stood at 717 ± 71 nM. Also, on 5-HT1E receptor, the “affinity for 5-HT1E receptor in words” value is “low affinity”.
`COc1ccccc1N1CCN(CCCCN2C(=O)c3ccccc3C2=O)CC1` [NAN 190]: the Ki at 5-HT1F receptor [1] (setting [6]) was found to be 203 ± 13 nM.
Turning to `NCCc1c[nH]c2ccc(O)cc12` [5-HT, 5-hydroxytryptamine], the “coupling to PI turnover” value on 5-HT1F receptor [3] is given as “no evidence for coupling of this receptor to PI turnover was detected”. The “affinity for 5-HT1F receptor in words” value at 5-HT1F receptor [1] is recorded as “highest affinity”. Moreover, the “maximum inhibition of cAMP production” value at 5-HT1F receptor [2] (forskolin 10 μM) is on record as 67±5.4%.
Consider `CC(N)Cc1c[nH]c2ccc(O)cc12` (stereo not drawn) [α-Methyl-5-HT], for which, on 5-HT1F receptor [1], the Ki stood at 184 ± 35 nM.
`COc1ccc2[nH]cc(CCNC(C)=O)c2c1` [Melatonin] displayed a Ki at 5-HT1F receptor [1] above 10000 nM.
At 5-HT1F receptor [1], `CN1C[C@H](C(=O)N[C@]2(C)O[C@@]3(O)[C@@H]4CCCN4C(=O)[C@H](Cc4ccccc4)N3C2=O)C[C@@H]2c3cccc4[nH]cc(c34)C[C@H]21` [Dihydroergotamine] gave a Ki of 276 ± 49 nM.
Take `Clc1cccc(N2CCNCC2)c1` [mCPP]: the Ki on 5-HT1F receptor [1] (setting [5]) was found to be 2020 nM.
Take `COc1ccc2[nH]cc(CCN(C)C)c2c1` [5-Methoxy-N,N-DMT, 5-methoxy-N,N-dimethyltryptamine]: on 5-HT1F receptor [1], the Ki is 37.5 ± 1.5 nM and the “affinity for 5-HT1F receptor in words” value was “affinity much higher than the other 5-substituted tryptamine derivatives”.
Molecule `CN1C[C@@H](NS(=O)(=O)N(C)C)C[C@@H]2c3cccc4c3c(cn4C)C[C@H]21` [Mesulergine] returned a Ki on 5-HT1F receptor [1] above 10000 nM.
For `Nc1nc2c(ncn2[C@@H]2O[C@H](COP(=O)(O)OP(=O)(O)NP(=O)(O)O)[C@@H](O)[C@H]2O)c(=O)[nH]1` [Gpp(NH)p], the “Imax of inhibition of [3H]5-HT specific binding” value with human 5-HT1F receptor worked out at 55.6±3.2%.
`CN1C[C@H](CO)C=C2c3cccc4[nH]cc(c34)C[C@H]21` [lysergol]: the EC50 at 5-HT1F receptor [4] was determined as 8.8 ± 4.3 nM.
With `CCCN(CCC)C1CCc2cccc(O)c2C1` (stereo not shown) [8-OH-DPAT], the “affinity for 5-HT1F receptor in words” value at 5-HT1F receptor [1] was “very poor affinity”. Further, at 5-HT1F receptor [1] (setting [5]), the Ki was 1770 nM.
For the molecule `CC(C)NCC(O)COc1cccc2[nH]ccc12` (stereo not shown) [Pindolol], on 5-HT1F receptor [1], the Ki was above 10000 nM and the “affinity for 5-HT1F receptor in words” value is “very poor affinity”.

The values above are taken from patent US6406859B1 (Synaptic Pharmaceutical Corporation, priority 1992, dated 2002).
